The source of these data is ChEMBL document CHEMBL1641457, “The synthesis and biological evaluation of 1-C-alkyl-L-arabinoiminofuranoses, a novel class of α-glucosidase inhibitors” (Bioorg Med Chem Lett, 2011).

Assay [1] addresses Lactase/phlorizin hydrolase (Rattus norvegicus) (UniProt Q02401). Description: Inhibition of Wistar rat small intestine lactase at 1000 uM after 30 mins.
Another assay is filed under the species Rattus norvegicus. Description: Inhibition of Wistar rat small intestine cellobiase at 1000 uM after 30 mins.
Assay [2] has as its target T1, Sucrase-isomaltase, intestinal (Rattus norvegicus, UniProt P23739). Description: Inhibition of Wistar rat small intestine isomaltase after 30 mins.
The target of assay [3] is T1, Sucrase-isomaltase, intestinal. The experiment in a line: Inhibition of Wistar rat small intestine sucrase after 30 mins.
Assay [4] concerns the target Sucrase-isomaltase, intestinal (Rattus norvegicus) (UniProt P23739). Description: Inhibition of Wistar rat small intestine isomaltase at 1000 uM after 30 mins.
In assay [5] the target is Lysosomal alpha-glucosidase (Rattus norvegicus) (UniProt Q6P7A9). Particulars: Wistar, 1000 uM.
Lysosomal alpha-glucosidase (Rattus norvegicus), sequence (Q6P7A9 whole entry): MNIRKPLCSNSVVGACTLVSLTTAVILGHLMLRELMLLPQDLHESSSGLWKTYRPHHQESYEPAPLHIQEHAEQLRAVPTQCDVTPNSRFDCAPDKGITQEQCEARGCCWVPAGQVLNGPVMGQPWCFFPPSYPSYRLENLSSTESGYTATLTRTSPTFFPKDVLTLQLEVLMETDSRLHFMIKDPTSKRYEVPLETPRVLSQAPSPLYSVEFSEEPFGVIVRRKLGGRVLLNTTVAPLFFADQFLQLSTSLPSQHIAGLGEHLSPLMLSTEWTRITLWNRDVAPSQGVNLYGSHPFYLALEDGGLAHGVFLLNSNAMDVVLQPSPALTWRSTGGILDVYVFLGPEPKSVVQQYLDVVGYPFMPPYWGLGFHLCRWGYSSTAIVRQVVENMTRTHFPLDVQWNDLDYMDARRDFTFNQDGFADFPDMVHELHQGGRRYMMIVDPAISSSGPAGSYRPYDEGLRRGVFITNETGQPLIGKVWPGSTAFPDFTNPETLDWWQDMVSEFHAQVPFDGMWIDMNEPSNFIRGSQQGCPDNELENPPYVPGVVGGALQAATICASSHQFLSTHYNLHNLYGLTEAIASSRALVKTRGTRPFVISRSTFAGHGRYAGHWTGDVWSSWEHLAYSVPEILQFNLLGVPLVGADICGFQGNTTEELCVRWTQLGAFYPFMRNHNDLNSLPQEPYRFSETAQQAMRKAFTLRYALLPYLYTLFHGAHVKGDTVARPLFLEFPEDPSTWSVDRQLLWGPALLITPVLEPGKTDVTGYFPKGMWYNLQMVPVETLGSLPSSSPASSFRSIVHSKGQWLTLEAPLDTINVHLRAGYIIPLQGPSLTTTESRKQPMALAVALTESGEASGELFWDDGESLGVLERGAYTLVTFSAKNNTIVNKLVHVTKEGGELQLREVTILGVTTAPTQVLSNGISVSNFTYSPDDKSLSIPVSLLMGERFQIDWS
Description: Inhibition of Wistar rat small intestine maltase at 1000 uM after 30 mins

Structures are written as SMILES.

T1 sequence (P23739 1-1013 limits assumed): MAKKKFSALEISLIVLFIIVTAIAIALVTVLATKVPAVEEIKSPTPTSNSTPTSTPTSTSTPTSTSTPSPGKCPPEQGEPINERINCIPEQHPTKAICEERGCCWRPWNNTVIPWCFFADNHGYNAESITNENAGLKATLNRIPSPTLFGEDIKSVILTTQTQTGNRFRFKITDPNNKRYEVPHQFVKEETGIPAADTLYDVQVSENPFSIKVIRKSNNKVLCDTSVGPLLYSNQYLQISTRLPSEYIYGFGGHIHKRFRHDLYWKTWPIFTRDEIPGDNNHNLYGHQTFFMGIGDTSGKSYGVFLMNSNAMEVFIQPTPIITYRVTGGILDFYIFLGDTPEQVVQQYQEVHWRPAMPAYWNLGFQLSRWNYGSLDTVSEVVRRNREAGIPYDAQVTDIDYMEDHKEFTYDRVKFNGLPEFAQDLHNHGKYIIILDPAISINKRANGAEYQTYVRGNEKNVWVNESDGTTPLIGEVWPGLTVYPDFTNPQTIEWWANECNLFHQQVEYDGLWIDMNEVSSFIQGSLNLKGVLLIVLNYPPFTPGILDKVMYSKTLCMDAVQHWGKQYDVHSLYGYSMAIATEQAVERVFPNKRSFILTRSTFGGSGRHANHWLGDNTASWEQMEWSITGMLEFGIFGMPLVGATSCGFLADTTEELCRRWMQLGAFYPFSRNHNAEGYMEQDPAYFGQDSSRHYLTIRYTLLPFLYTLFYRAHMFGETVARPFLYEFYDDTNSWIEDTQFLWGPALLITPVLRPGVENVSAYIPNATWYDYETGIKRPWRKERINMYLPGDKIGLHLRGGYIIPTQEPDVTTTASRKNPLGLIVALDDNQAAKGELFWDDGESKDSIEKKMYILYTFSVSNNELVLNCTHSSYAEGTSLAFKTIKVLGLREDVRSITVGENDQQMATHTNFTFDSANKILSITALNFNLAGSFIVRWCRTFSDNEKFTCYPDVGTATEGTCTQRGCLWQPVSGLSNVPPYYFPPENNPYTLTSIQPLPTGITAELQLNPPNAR
T1 sequence (P23739 1014-1841 limits assumed): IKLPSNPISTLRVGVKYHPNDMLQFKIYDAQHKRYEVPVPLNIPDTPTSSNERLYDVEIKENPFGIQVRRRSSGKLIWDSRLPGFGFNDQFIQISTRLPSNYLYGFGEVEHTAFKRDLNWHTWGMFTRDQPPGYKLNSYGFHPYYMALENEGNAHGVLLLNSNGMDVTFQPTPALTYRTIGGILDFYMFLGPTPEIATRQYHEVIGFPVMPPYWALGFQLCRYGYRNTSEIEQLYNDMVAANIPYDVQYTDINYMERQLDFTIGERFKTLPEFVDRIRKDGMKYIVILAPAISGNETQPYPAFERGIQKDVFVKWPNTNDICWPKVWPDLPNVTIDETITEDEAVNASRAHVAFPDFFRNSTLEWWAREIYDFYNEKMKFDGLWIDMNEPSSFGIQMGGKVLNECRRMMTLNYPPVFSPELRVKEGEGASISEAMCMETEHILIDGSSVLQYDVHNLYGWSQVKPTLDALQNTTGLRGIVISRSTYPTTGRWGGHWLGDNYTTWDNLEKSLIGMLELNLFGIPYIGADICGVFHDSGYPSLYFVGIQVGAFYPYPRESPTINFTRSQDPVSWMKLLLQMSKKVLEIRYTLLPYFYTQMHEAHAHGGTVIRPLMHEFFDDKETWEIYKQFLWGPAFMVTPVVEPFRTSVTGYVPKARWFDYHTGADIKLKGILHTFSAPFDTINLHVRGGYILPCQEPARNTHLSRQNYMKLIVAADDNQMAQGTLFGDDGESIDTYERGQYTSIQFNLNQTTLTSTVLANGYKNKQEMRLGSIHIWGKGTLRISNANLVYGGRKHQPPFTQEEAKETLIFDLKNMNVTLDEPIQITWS
Sucrase-isomaltase, intestinal (Rattus norvegicus), sequence (P23739 1-1013 limits assumed): as the sequence (P23739 1-1013 limits assumed) above
Sucrase-isomaltase, intestinal (Rattus norvegicus), sequence (P23739 1014-1841 limits assumed): as the sequence (P23739 1014-1841 limits assumed) above
Lactase/phlorizin hydrolase (Rattus norvegicus), sequence (Q02401 868-1928 limits assumed): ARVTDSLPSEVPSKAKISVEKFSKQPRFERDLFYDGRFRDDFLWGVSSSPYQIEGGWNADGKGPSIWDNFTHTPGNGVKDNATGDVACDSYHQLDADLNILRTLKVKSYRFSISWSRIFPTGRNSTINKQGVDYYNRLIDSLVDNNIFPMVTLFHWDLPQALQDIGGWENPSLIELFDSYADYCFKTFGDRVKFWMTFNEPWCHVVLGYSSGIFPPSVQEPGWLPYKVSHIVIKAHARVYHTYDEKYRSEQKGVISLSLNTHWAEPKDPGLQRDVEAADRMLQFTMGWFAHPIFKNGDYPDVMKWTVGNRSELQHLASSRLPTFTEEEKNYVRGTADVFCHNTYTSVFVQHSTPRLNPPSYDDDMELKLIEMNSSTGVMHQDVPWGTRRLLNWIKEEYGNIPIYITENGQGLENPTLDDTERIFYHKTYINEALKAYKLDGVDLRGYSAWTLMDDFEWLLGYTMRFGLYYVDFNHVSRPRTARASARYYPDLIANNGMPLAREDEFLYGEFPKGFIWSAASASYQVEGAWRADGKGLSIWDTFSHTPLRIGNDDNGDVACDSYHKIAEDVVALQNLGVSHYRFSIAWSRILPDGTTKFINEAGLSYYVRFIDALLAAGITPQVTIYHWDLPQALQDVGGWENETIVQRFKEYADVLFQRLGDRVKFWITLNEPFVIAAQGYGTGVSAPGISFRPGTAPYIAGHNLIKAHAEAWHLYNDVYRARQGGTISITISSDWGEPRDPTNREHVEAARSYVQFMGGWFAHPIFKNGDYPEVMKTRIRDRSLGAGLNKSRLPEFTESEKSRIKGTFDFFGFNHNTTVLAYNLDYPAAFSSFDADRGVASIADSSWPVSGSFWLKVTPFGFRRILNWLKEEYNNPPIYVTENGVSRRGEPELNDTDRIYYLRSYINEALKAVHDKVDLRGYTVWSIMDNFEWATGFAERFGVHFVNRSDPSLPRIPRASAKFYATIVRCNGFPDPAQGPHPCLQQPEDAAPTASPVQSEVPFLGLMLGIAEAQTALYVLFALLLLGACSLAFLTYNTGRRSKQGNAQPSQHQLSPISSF

For `OCC(CO)N[C@H]1C[C@](O)(CO)[C@@H](O)[C@H](O)[C@H]1O` [VOGLIBOSE], the inhibition (in assay [1]; in the assay filed under Rattus norvegicus) was less than 50% in each case. Besides, the 50% inhibitory concentration (IC50) is 5.2 µM in assay [2] and 0.37 µM in assay [3].
With `CCCCCCCCC[C@@H]1N[C@@H](CO)[C@H](O)[C@H]1O`, the inhibition (in assay [1]; in the assay listed under Rattus norvegicus) was less than 50% in each case. The 50% inhibitory concentration (IC50) in assay [2] is 171 µM; in assay [3], 1.4 µM.
For `CCCCCCCCCCC[C@@H]1N[C@@H](CO)[C@H](O)[C@H]1O`, the inhibition (in assay [1]; in the assay listed under Rattus norvegicus; in assay [4]) was less than 50% each time. In assay [3], this compound gave an IC50 of 13 µM.
`CCCC[C@@H]1N[C@@H](CO)[C@H](O)[C@H]1O`: the inhibition (in assay [1]; in the assay listed under Rattus norvegicus) was less than 50% throughout. The values for the IC50 in assay [2] and in assay [3] were 4.7 µM and 0.032 µM, respectively.
On to `CCCC[C@H]1N[C@@H](CO)[C@H](O)[C@H]1O`, for which the inhibition (in assay [1]; in the assay listed under Rattus norvegicus; in assay [5]; in assay [4]) was less than 50% in each case. Besides, in assay [3], the 50% inhibitory concentration (IC50) was found to be 392 µM.
On to `CCCCCCCC[C@H]1N[C@@H](CO)[C@H](O)[C@H]1O`, for which the inhibition (in assay [1]; in the assay listed under Rattus norvegicus; in assay [4]) was less than 50% each time. The compound also returned a half-inhibitory concentration (IC50) in assay [3] of 590 µM.
As for `CC[C@@H]1N[C@@H](CO)[C@H](O)[C@H]1O`, the inhibition (in assay [1]; in the assay filed under Rattus norvegicus) was less than 50% each time. In addition, the concentration for half-maximal inhibition (IC50) in assay [2] turned out to be 11 µM; in assay [3], 0.68 µM.
In the case of `CCCCC[C@@H]1N[C@@H](CO)[C@H](O)[C@H]1O`, the inhibition (in assay [1]; in the assay listed under Rattus norvegicus) was less than 50% each time. Further, the IC50 in assay [2] was 18 µM; in assay [3], 0.19 µM.
On to `OCCN1C[C@H](O)[C@@H](O)[C@H](O)[C@H]1CO` [MIGLITOL], for which the inhibition (in assay [1]; in the assay listed under Rattus norvegicus) was less than 50% throughout.
Regarding `CCCCCCC[C@@H]1N[C@@H](CO)[C@H](O)[C@H]1O`, the inhibition (in assay [1]; in the assay filed under Rattus norvegicus) was less than 50% each time. The IC50 came to 16 µM in assay [2] and 0.24 µM in assay [3].
Take `CCCC[C@H]1[C@H](O)[C@@H](O)[C@H](CO)N1CCCC`: the inhibition (in assay [1]; in the assay listed under Rattus norvegicus; in assay [4]) was less than 50% each time. In assay [3], the 50% inhibitory concentration (IC50) was determined as 8.8 µM.
As to `CCCCCCCC[C@@H]1N[C@@H](CO)[C@H](O)[C@H]1O`, the inhibition (in assay [1]; in the assay listed under Rattus norvegicus) was less than 50% throughout. The IC50 is 75 µM in assay [2] and 0.45 µM in assay [3].
As to `CCCCCCCCCC[C@@H]1N[C@@H](CO)[C@H](O)[C@H]1O`, the inhibition (in assay [1]; in the assay filed under Rattus norvegicus) was less than 50% each time. For the same compound, the half-maximal inhibitory concentration (IC50) in assay [2] stood at 606 µM; in assay [3] it was 1.7 µM.
Turning to `C[C@H]1O[C@H](O[C@H]2[C@H](O)[C@@H](O)[C@@H](O[C@H]3[C@H](O)[C@@H](O)C(O)O[C@@H]3CO)O[C@@H]2CO)[C@H](O)[C@@H](O)[C@@H]1N[C@H]1C=C(CO)[C@@H](O)[C@H](O)[C@H]1O` (some centres not stated), the inhibition (in assay [1]; in the assay filed under Rattus norvegicus; in assay [4]) was less than 50% throughout.
`CCCCCC[C@@H]1N[C@@H](CO)[C@H](O)[C@H]1O`: the inhibition (in assay [1]; in the assay listed under Rattus norvegicus) was less than 50% throughout. In addition, the IC50 in assay [2] was 11 µM; in assay [3], 0.11 µM.
Take `CCC[C@@H]1N[C@@H](CO)[C@H](O)[C@H]1O`: the inhibition (in assay [1]; in the assay filed under Rattus norvegicus) was less than 50% in each case. In addition, the IC50 in assay [2] stood at 47 µM; in assay [3], 0.26 µM.

By inhibition is commonly meant the change of the read-out against control, counted positive when it falls. Usually IC50 stands for the concentration needed to halve the response being measured. A lower IC50 goes with greater potency in that assay.
